In patent US20230357307A1, “CLEAVABLE CYCLIC LOOP NUCLEOTIDES FOR NANOPORE SEQUENCING” (ILLUMINA, INC., priority 2022, published 2023):

System: polymerase
Experiment: polymerase incorporation of allyl dTTP (FIG. 7 gel)
Format: biochemical
Conditions: homopolymeric A template
Excerpt: A polymerase incorporated “allyl dTTP” and “ext allyl dTTP” to a template and primer combination, as indicated by the arrow in FIG. 7, for up to 10 successive incorporations. The reaction conditions as well as the definitions of “allyl dTTP” and “ext allyl dTTP” are given in the right panel of FIG. 7. Moreover, “A” and “B” are referring to the optically pure diastereomers arising from the C5′ allyl carbon center.
Lanes 1 (starting from the left), 3, 5, 7, 9 and 11 were loaded with reactions run for an hour; and Lanes 2, 4, 6, 8, 10 and 12 were loaded with reactions run for 22 hours. Lanes 1 and 2 show: controls with natural dTTP without any arresting constructs (Note, bands above +10 are seen due to the use of a homopolymeric A template, a common observation). Lanes 3 and 4 show: one isomer of Allyl dTTP (“Allyl A dTTP”) is used, the isomer arise from the C-stereogenic center (marked with “+” in the structure shown on the right panel of FIG. 7). Up to +7 incorporation observed after 1 h. […] Lanes 5 and 6 show: one isomer of ext allyl dTTP (“Ext Allyl A dTTP”) is used. Up to +7 incorporation observed after 22h. Slower incorporation possibly due to increased sterics. Lanes 7 and 8 show: the other isomer of Allyl dTTP (“Allyl B dTTP”) is used. Up to +10 incorporation observed after 22h. Lanes 9 and 10 show: the other isomer of ext allyl dTTP (“Ext Allyl B dTTP”) is used. […]

Cc1cn([C@H]2C[C@H](O)[C@@H](COP(=O)(O)OP(=O)(O)OP(=O)(O)O)O2)c(=O)[nH]c1=O [dTTP]
incorporation observed (primer +n) (reactions run for 22 hours): above +10
incorporation observed (primer +n) (reactions run for an hour): above +10
